Laboratory results from ChEMBL document CHEMBL1909046, “DrugMatrix in vitro pharmacology data”.

Key:
[1] = molecular target: T1, Receptor-type tyrosine-protein phosphatase C (Homo sapiens, UniProt P08575); design: species or system Escherichia coli;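 note: inhibition of CD45 enzyme activity measured using DiFMUP as substrate; in other assays of this panel Not Active means under 50% inhibition at 10 µM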
T1 sequence (P08575 whole entry): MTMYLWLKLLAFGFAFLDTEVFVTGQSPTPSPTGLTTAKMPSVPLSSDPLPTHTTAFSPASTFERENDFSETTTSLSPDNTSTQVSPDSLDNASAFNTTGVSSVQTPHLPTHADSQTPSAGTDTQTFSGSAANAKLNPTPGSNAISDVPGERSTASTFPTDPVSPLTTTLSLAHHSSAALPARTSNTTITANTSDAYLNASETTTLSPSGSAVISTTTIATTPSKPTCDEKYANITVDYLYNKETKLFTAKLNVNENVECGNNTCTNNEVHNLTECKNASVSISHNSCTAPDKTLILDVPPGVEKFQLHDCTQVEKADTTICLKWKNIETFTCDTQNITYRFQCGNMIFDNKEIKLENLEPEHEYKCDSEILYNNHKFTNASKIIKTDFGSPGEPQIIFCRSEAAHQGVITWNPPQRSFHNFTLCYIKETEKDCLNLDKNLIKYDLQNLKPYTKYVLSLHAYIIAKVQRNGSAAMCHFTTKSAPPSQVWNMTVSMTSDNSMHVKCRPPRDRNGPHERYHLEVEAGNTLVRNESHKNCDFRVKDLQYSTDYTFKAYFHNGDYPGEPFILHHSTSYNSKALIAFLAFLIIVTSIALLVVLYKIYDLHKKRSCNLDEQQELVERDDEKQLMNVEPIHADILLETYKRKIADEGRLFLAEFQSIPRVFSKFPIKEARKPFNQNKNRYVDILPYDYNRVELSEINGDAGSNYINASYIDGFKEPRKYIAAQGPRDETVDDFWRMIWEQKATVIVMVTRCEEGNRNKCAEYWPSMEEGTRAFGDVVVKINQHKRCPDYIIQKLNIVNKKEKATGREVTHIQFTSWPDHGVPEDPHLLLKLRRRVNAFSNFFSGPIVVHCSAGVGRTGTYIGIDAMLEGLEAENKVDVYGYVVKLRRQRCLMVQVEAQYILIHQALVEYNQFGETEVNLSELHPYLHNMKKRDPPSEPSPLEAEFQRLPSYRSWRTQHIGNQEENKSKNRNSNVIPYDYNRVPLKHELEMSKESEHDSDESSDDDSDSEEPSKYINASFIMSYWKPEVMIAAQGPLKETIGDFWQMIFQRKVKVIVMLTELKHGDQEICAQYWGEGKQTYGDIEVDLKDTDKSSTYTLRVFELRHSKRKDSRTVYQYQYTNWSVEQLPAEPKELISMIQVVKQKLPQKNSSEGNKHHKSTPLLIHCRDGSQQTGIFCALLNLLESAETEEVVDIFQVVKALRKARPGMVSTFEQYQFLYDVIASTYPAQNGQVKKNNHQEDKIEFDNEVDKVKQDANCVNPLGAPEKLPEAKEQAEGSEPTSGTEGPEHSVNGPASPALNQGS

[2] = molecular target: Sigma non-opioid intracellular receptor 1 (Homo sapiens, UniProt Q99720); test: DRUGMATRIX: Sigma1 radioligand binding (ligand: [3H] Haloperidol); format: cell membranes, Jurkat, Membrane; details: Not Active = under 50% inhibition at 10 µM
[3] = molecular target: Protein kinase C alpha type (Homo sapiens, UniProt P17252); format: cell-based; details: sf9;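 note: inhibition of PKCalpha kinase activity measured in an enzyme assay with histone as the phosphorylation substrate; in other assays of this panel Not Active means under 50% inhibition at 10 µM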
[4] = molecular target: T2, Muscarinic acetylcholine receptor M5 (Homo sapiens, UniProt P08912); format: cell membranes, CHO-K1, Membrane; note: in other assays of this panel Not Active means under 50% inhibition at 10 µM
T2 sequence (P08912 whole entry): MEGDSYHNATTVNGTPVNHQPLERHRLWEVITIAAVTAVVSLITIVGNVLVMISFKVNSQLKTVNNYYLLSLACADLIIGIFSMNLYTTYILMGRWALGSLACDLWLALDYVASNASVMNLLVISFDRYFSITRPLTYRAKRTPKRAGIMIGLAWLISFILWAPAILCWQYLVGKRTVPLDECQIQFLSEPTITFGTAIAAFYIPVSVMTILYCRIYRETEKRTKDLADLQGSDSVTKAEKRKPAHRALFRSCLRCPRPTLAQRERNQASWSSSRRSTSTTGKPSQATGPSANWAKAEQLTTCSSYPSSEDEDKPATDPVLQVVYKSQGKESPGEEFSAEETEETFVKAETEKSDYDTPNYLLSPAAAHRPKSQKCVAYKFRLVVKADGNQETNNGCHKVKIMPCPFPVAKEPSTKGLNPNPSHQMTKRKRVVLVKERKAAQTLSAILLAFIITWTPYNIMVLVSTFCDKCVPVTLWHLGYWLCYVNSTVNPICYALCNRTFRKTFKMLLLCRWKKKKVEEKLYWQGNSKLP

[5] = molecular target: T3, D(4) dopamine receptor (Homo sapiens, UniProt P21917); test: DRUGMATRIX: Dopamine D4.2 radioligand binding (ligand: [3H] Spiperone); format: cell membranes, CHO-K1, Membrane; details: cho-k1; Not Active = under 50% inhibition at 10 µM
T3 sequence (P21917 whole entry): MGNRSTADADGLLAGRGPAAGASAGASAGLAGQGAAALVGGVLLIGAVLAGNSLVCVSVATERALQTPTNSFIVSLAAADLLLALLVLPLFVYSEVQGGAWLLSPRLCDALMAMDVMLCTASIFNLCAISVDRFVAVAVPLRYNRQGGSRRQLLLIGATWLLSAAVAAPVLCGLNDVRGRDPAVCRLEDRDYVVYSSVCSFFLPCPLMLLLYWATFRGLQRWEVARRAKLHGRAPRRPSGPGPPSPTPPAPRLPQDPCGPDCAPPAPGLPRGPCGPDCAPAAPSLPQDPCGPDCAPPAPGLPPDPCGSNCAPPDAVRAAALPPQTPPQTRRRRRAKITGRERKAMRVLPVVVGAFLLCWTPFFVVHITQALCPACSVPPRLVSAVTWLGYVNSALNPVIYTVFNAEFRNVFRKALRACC

Sequence of Sigma non-opioid intracellular receptor 1 (Q99720 whole entry): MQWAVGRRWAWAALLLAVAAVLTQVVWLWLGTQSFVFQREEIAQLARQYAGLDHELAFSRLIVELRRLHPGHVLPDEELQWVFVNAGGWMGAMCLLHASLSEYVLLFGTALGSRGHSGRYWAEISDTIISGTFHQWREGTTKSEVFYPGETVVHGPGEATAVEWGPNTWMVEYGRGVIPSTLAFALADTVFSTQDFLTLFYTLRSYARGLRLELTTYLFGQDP

Structure (SMILES)	IC50 [1]	IC50 ([2]; jurkat)	IC50 [3]	IC50 ([4]; cho-k1)	IC50 [5]	Ki [1]	Ki ([2]; jurkat)	Ki [3]	Ki ([4]; cho-k1)	Ki [5]	IC50 ([2]; read-out: IC50)	Ki ([2]; read-out: Ki)	IC50 ([4]; read-out: IC50)	Ki ([4]; read-out: Ki)
CC(C)CN(C[C@@H](O)[C@H](Cc1ccccc1)NC(=O)O[C@H]1CCOC1)S(=O)(=O)c1ccc(N)cc1	Not Active	Not Active	Not Active	Not Active	Not Active	–	–	–	–	–	–	–	–	–
c1ccc(Nc2ccc(Nc3ccccc3)cc2)cc1	Not Active	Not Active	Not Active	Not Active	Not Active	–	–	–	–	–	–	–	–	–
COc1cc2c3cc1Oc1cc(ccc1O)C[C@@H]1c4c(cc(OC)c(O)c4Oc4ccc(cc4)C[C@@H]3N(C)CC2)CC[N+]1(C)C.[Cl-]	Not Active	Not Active	Not Active	Not Active	Not Active	–	–	–	–	–	–	–	–	–
NC(=O)N1c2ccccc2CCc2ccccc21	Not Active	Not Active	Not Active	Not Active	Not Active	–	–	–	–	–	–	–	–	–
O=C1CC[C@@H](N2C(=O)c3ccccc3C2=O)C(=O)N1	Not Active	Not Active	Not Active	Not Active	Not Active	–	–	–	–	–	–	–	–	–
Cc1onc(O)c1CC(N)C(=O)O (racemic) [(R,S)-AMPA]	Not Active	Not Active	Not Active	Not Active	Not Active	–	–	–	–	–	–	–	–	–
Cc1ccc2cc3c(ccc4ccccc43)c3c2c1CC3 [3-METHYLCHOLANTHRENE]	Not Active	Not Active	Not Active	Not Active	Not Active	–	–	–	–	–	–	–	–	–
CC[C@@]1(O)C[C@H](O[C@H]2C[C@H](N(C)C)[C@H](O[C@H]3C[C@H](O)[C@H](O[C@H]4CCC(=O)[C@H](C)O4)[C@H](C)O3)[C@H](C)O2)c2c(cc3c(c2O)C(=O)c2c(O)cccc2C3=O)[C@H]1C(=O)OC [ACLARUBICIN]	Not Active	Not Active	Not Active	Not Active	Not Active	–	–	–	–	–	–	–	–	–
Nc1nc2c(ncn2COCCO)c(=O)[nH]1 [ACYCLOVIR]	Not Active	Not Active	Not Active	Not Active	Not Active	–	–	–	–	–	–	–	–	–
Cc1c(C)c2c(c(C)c1O)CC[C@@](C)(CCC[C@H](C)CCC[C@H](C)CCCC(C)C)O2 [ALPHA-TOCOPHEROL]	Not Active	Not Active	Not Active	Not Active	Not Active	–	–	–	–	–	–	–	–	–
CN(C)c1nc(N(C)C)nc(N(C)C)n1 [ALTRETAMINE]	Not Active	Not Active	Not Active	Not Active	Not Active	–	–	–	–	–	–	–	–	–
Nc1c(Br)cc(Br)cc1CN[C@H]1CC[C@H](O)CC1 [AMBROXOL]	Not Active	Not Active	Not Active	Not Active	Not Active	–	–	–	–	–	–	–	–	–
NCCCCCC(=O)O [AMINOCAPROIC ACID]	Not Active	Not Active	Not Active	Not Active	Not Active	–	–	–	–	–	–	–	–	–
CCC1(c2ccc(N)cc2)CCC(=O)NC1=O (stereo not drawn) [AMINOGLUTETHIMIDE]	Not Active	Not Active	Not Active	Not Active	Not Active	–	–	–	–	–	–	–	–	–
Cc1ccc(/N=C/N(C)/C=N/c2ccc(C)cc2C)c(C)c1 [AMITRAZ]	Not Active	Not Active	Not Active	Not Active	Not Active	–	–	–	–	–	–	–	–	–
CCOC(=O)C1=C(COCCN)NC(C)=C(C(=O)OC)C1c1ccccc1Cl (stereo not drawn) [AMLODIPINE]	Not Active	Not Active	Not Active	Not Active	Not Active	–	–	–	–	–	–	–	–	–
COc1ccc(C[C@H]2NC[C@H](O)[C@H]2OC(C)=O)cc1 [ANISOMYCIN]	Not Active	Not Active	Not Active	Not Active	Not Active	Not Active	Not Active	Not Active	Not Active	Not Active	–	–	–	–
Nc1ncn([C@@H]2O[C@H](CO)[C@@H](O)[C@H]2O)c(=O)n1 [AZACITIDINE]	Not Active	Not Active	Not Active	Not Active	Not Active	–	–	–	–	–	–	–	–	–
CN(C)C(=O)Oc1cc(OC(=O)N(C)C)cc(C(O)CNC(C)(C)C)c1 (stereo not drawn) [BAMBUTEROL]	Not Active	Not Active	Not Active	Not Active	Not Active	–	–	–	–	–	–	–	–	–
c1ccc2c(c1)c1cccc3ccc4cccc2c4c31 [BENZO[E]PYRENE]	Not Active	Not Active	Not Active	Not Active	Not Active	–	–	–	–	–	–	–	–	–
CNCCc1ccccn1 [BETAHISTINE]	Not Active	Not Active	Not Active	Not Active	Not Active	–	–	–	–	–	–	–	–	–
CC(C)C(Br)C(=O)NC(N)=O (stereo not drawn) [BROMISOVALUM]	Not Active	Not Active	Not Active	Not Active	Not Active	–	–	–	–	–	–	–	–	–
CCCC1O[C@@H]2C[C@H]3[C@@H]4CCC5=CC(=O)C=C[C@]5(C)[C@H]4[C@@H](O)C[C@]3(C)[C@]2(C(=O)CO)O1 (stereo partly drawn) [BUDESONIDE]	Not Active	Not Active	Not Active	Not Active	Not Active	–	–	–	–	–	–	–	–	–
CC(NC(C)(C)C)C(=O)c1cccc(Cl)c1 (stereo not drawn) [BUPROPION]	Not Active	Not Active	Not Active	Not Active	Not Active	–	–	–	–	–	–	–	–	–
CN(Cc1ccc(C(C)(C)C)cc1)Cc1cccc2ccccc12 [BUTENAFINE]	Not Active	–	Not Active	Not Active	Not Active	–	–	–	–	–	3950 nM	1660 nM	–	–
C[C@H](CS)C(=O)N1CCC[C@H]1C(=O)O [CAPTOPRIL]	Not Active	Not Active	Not Active	Not Active	Not Active	–	–	–	–	–	–	–	–	–
Cc1ccc(-c2cc(C(F)(F)F)nn2-c2ccc(S(N)(=O)=O)cc2)cc1 [CELECOXIB]	Not Active	Not Active	Not Active	Not Active	Not Active	–	–	–	–	–	–	–	–	–
CN(C)CCCN1c2ccccc2Sc2ccc(Cl)cc21 [CHLORPROMAZINE]	Not Active	–	Not Active	–	–	–	–	–	–	–	–	–	–	–
O=C(CCCN1CC=C(n2c(=O)[nH]c3ccccc32)CC1)c1ccc(F)cc1 [DROPERIDOL]	Not Active	–	Not Active	–	Not Active	–	–	–	–	–	–	–	2300 nM	1650 nM
